In PubChem BioAssay (NCI):
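Where inhibition never reached the appropriate level, the endpoint shown equals the highest concentration tested. Otherwise, values were interpolated linearly from a five-concentration, 48-hour dose response in 96-well plates. TGI: concentration producing complete growth inhibition.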

Columns and labels:
Experiment in all cases: NCI-60 cell line screen, 48 h
U251 CNS = tested on: U251 CNS
HOP-18 NSCLC = tested on: HOP-18 NSCLC
SNB-19 CNS = tested on: SNB-19 CNS
OVCAR-8 ovarian = tested on: OVCAR-8 ovarian
SN12C renal = tested on: SN12C renal
786-0 renal = tested on: 786-0 renal
OVCAR-4 ovarian = tested on: OVCAR-4 ovarian
HCT-15 colon = tested on: HCT-15 colon
SW-620 colon = tested on: SW-620 colon
DMS 273 small cell lung = tested on: DMS 273 small cell lung
LXFL 529 NSCLC = tested on: LXFL 529 NSCLC
UACC-62 melanoma = tested on: UACC-62 melanoma
A549 NSCLC = tested on: A549 NSCLC
M14 melanoma = tested on: M14 melanoma
TK-10 renal = tested on: TK-10 renal
HCC-2998 colon = tested on: HCC-2998 colon
MALME-3M melanoma = tested on: MALME-3M melanoma
SK-MEL-5 melanoma = tested on: SK-MEL-5 melanoma
HOP-62 NSCLC = tested on: HOP-62 NSCLC
UO-31 renal = tested on: UO-31 renal
SF-268 CNS = tested on: SF-268 CNS
IGROV1 ovarian = tested on: IGROV1 ovarian
CCRF-CEM leukemia = tested on: CCRF-CEM leukemia
SR leukemia = tested on: SR leukemia
RPMI-8226 leukemia = tested on: RPMI-8226 leukemia
NCI-H23 lung = tested on: NCI-H23 lung
ACHN renal = tested on: ACHN renal
KM20L2 colon = tested on: KM20L2 colon
A498 renal = tested on: A498 renal
OVCAR-5 ovarian = tested on: OVCAR-5 ovarian
K-562 leukemia = tested on: K-562 leukemia
SF-295 CNS = tested on: SF-295 CNS
OVCAR-3 ovarian = tested on: OVCAR-3 ovarian
HT29 colon = tested on: HT29 colon
UACC-257 melanoma = tested on: UACC-257 melanoma
CAKI-1 renal = tested on: CAKI-1 renal
COLO 205 colon = tested on: COLO 205 colon
DMS 114 small cell lung = tested on: DMS 114 small cell lung
NCI-H226 lung = tested on: NCI-H226 lung
SK-MEL-28 melanoma = tested on: SK-MEL-28 melanoma
DLD-1 colon = tested on: DLD-1 colon
NCI-H460 lung = tested on: NCI-H460 lung
MOLT-4 leukemia = tested on: MOLT-4 leukemia
SK-OV-3 ovarian = tested on: SK-OV-3 ovarian
HOP-92 NSCLC = tested on: HOP-92 NSCLC
M19-MEL melanoma = tested on: M19-MEL melanoma
HCT-116 colon = tested on: HCT-116 colon
HL-60(TB) leukemia = tested on: HL-60(TB) leukemia
LOX IMVI melanoma = tested on: LOX IMVI melanoma

SMILES: Cc1ccc(S(=O)(=O)OCC23CCC(C2)C2CC23)cc1 (centres undefined)
- TGI (U251 CNS): > 100 µM
- TGI (HOP-18 NSCLC): > 100 µM
- TGI (SNB-19 CNS): > 100 µM
- TGI (OVCAR-8 ovarian): > 100 µM
- TGI (SN12C renal): > 100 µM
- TGI (786-0 renal): > 100 µM
- TGI (OVCAR-4 ovarian): > 100 µM
- TGI (HCT-15 colon): > 100 µM
- TGI (SW-620 colon): > 100 µM
- TGI (DMS 273 small cell lung): > 100 µM
- TGI (LXFL 529 NSCLC): > 100 µM
- TGI (UACC-62 melanoma): > 100 µM
- TGI (A549 NSCLC): > 100 µM
- TGI (M14 melanoma): > 100 µM
- TGI (TK-10 renal): > 100 µM
- TGI (HCC-2998 colon): > 100 µM
- TGI (MALME-3M melanoma): > 100 µM
- TGI (SK-MEL-5 melanoma): > 100 µM
- TGI (HOP-62 NSCLC): > 100 µM
- TGI (UO-31 renal): > 100 µM
- TGI (SF-268 CNS): > 100 µM
- TGI (IGROV1 ovarian): > 100 µM
- TGI (CCRF-CEM leukemia): > 100 µM
- TGI (SR leukemia): > 100 µM
- TGI (RPMI-8226 leukemia): > 100 µM
- TGI (NCI-H23 lung): > 100 µM
- TGI (ACHN renal): > 100 µM
- TGI (KM20L2 colon): > 100 µM
- TGI (A498 renal): > 100 µM
- TGI (OVCAR-5 ovarian): > 100 µM
- TGI (K-562 leukemia): > 100 µM
- TGI (SF-295 CNS): > 100 µM
- TGI (OVCAR-3 ovarian): > 100 µM
- TGI (HT29 colon): > 100 µM
- TGI (UACC-257 melanoma): > 100 µM
- TGI (CAKI-1 renal): > 100 µM
- TGI (COLO 205 colon): > 100 µM
- TGI (DMS 114 small cell lung): > 100 µM
- TGI (NCI-H226 lung): > 100 µM
- TGI (SK-MEL-28 melanoma): > 100 µM
- TGI (DLD-1 colon): > 100 µM
- TGI (NCI-H460 lung): > 100 µM
- TGI (MOLT-4 leukemia): > 100 µM
- TGI (SK-OV-3 ovarian): > 100 µM
- TGI (HOP-92 NSCLC): 94.8 µM
- TGI (M19-MEL melanoma): > 100 µM
- TGI (HCT-116 colon): > 100 µM
- TGI (HL-60(TB) leukemia): 98.8 µM
- TGI (LOX IMVI melanoma): > 100 µM
